# The source made the active and inactive calls. The calls are words filed in the database; no cut-off is given here.
# How the values were obtained:
# [1] = Inhibition of tubulin polymerization
# [2] = tested on: RPMI-8226; assay: Growth inhibition of human RPMI8226 cells; type: functional, cell-based
# [3] = Inhibition of tubulin polymerization at 100 uM
SMILES,IC50 [1] [µM],IC50 [2] [µM],Activity [3]
CC1=C(O)C(=O)C=C2C1=CC=C1[C@@]2(C)CC[C@@]2(C)[C@@H]3C[C@@H](C)C(=O)C[C@]3(C)CC[C@]12C [TINGENONE],8,7,–
COc1c(O)cc2c(c1C)C(=O)C=C1[C@@]2(C)CC[C@@]2(C)[C@@H]3C[C@@H](C)C(=O)C[C@]3(C)CC[C@]12C,–,–,inactive
CC1=C(O)C(=O)C=C2C1=CC=C1[C@@]2(C)CC[C@@]2(C)[C@@H]3C[C@@H](C)C(=O)[C@@H](O)[C@]3(C)CC[C@]12C [TINGENIN B],12,18.3,–
CC[C@]1(O)C[C@@H]2CN(CCc3c([nH]c4ccccc34)[C@@](C(=O)OC)(c3cc4c(cc3OC)N(C)[C@H]3[C@@](O)(C(=O)OC)[C@H](OC(C)=O)[C@]5(CC)C=CCN6CC[C@]43[C@@H]65)C2)C1 [VINBLASTINE],1,0.028,–
COC(=O)[C@]1(C)CC[C@]2(C)CC[C@]3(C)C4=CC(=O)c5c(cc(O)c(O)c5C)[C@]4(C)CC[C@@]3(C)[C@@H]2C1,–,–,inactive
CC1=C(O)C(=O)C=C2C1=CC=C1[C@@]2(C)CC[C@@]2(C)[C@@H]3C[C@](C)(C(=O)O)CC[C@]3(C)CC[C@]12C [CELASTROL],2,3,–
COC(=O)[C@]1(C)CC[C@]2(C)CC[C@]3(C)C4=CC=C5C(=CC(=O)C(O)=C5C)[C@]4(C)CC[C@@]3(C)[C@@H]2C1 [PRISTIMERIN],8,16.6,–
